Assay results as given in patent US10183021B2, “sGC stimulators” (Ironwood Pharmaceuticals, Inc., priority 2013, dated 2019).

Assays:
[1] = molecular target: T1, soluble guanylate cyclase (sGC) (Homo sapiens (Human), UniProt Q02108+Q02153); experiment: sGC-HEK-cGMP assay, new protocol with DETA-NONOate, LC/MS detection (Example 2C); type: cell-based; details: read-out: Absolute EC50 (uM) - binned
Procedure: Human embryonic kidney cells (HEK293), endogenously expressing soluble guanylate cyclase (sGC), were used to evaluate the activity of test compounds. Compounds stimulating the sGC enzyme should cause an increase in the intracellular concentration of cGMP. HEK 293 cells were seeded in Dulbecco's Modification of Eagle's Medium supplemented with fetal bovine serum (10% final) and penicillin (100 U/mL)/streptomycin (100 μg/mL) in a 50 μL volume at a density of 1.5×10^4 cells/well in a poly-D-lysine coated 384 well flat bottom plate. Cells were incubated overnight at 37° C. in a humidified chamber with 5% CO2. Medium was aspirated and cells were washed with 1× Hank's Buffered Saline Salt Solution (50 μL). Cells were then incubated for 15 minutes at 37° C. with 50 μL of a 0.5 mM 3-isobutyl-1-methylxanthine (IBMX) solution. Test article and Diethylenetriamine NONOate (DETA-NONOate) solutions (x μM concentration for test article solution and 10 μM concentration for DETA-NONOate solution; wherein x is one of the following concentrations);
were then added to the assay mixture and the resulting mixture incubated at 37° C. for 20 minutes. After the 20 minute incubation, the assay mixture was aspirated and 10% acetic acid containing 150 ng/mL+3-cGMP (internal standard for LCMS) (50 μL) was added to the cells. The plate was incubated at 4° C. for 30 minutes in the acetic acid solution to stop the reaction and lyse the cells. The plates were then centrifuged at 1,000 g for 3 minutes at 4° C. and the supernatant transferred to a clean reaction plate for LCMS analysis.
cGMP concentrations were determined from each sample using the LCMS conditions below (Table 5) and calculated standard curve.
Data were normalized to a high control using the following equation: 100*(Sample−Low Control)/(High Control−Low Control), where the low control is the average of 16 samples treated with 1% DMSO, and the high control is the average of 16 samples treated with 30 μM of 1-329 Data were fit using a 4-parameter fit (log(agonist) vs. response—variable slope) using GraphPad Prism Software v.5. n=2 for all compounds. […] Compounds failing to elicit a minimum response of 50% are reported as >30 μM.

[2] = molecular target: T1, soluble guanylate cyclase (sGC); experiment: sGC-HEK-cGMP assay with SNP incubation, LC/MS detection (Example 2A); type: cell-based; details: HEK293 cells, 10 μM SNP, LC/MS detection; for Emax: 100% = BAY 41-2272 at 10 μM, read-out: HEK assay Emax - unconstrained (%); for EC50: top of curve not fitted to 100%, read-out: HEK assay EC50 - unconstrained
Summary of the method: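 HEK293 cells with endogenous sGC were pretreated 15 min at 37 °C with 0.5 mM IBMX, then exposed 10 min at 37 °C to compound (added from 0.0001–30 μM solutions) plus SNP (from 10 μM solution). After 0.1 M HCl lysis, cGMP was quantified by LC/MS against a standard curve.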

T1 sequence (Q02153 whole entry): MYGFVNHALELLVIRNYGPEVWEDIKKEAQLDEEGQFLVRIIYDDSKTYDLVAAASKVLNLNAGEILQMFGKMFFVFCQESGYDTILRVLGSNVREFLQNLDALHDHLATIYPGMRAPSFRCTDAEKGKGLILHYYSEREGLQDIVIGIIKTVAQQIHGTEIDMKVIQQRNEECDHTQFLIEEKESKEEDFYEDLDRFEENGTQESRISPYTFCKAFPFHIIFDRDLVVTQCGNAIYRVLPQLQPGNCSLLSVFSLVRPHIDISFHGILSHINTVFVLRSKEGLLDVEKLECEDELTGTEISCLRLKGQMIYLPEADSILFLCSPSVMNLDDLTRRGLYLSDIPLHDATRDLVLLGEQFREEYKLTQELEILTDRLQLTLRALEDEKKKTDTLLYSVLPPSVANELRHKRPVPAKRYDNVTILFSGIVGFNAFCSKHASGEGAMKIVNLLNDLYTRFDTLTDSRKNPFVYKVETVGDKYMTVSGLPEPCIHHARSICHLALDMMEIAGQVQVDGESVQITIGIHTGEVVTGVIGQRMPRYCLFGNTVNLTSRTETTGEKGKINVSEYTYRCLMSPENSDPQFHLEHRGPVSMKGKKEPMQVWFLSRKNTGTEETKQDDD
T1 sequence (Q02108 whole entry): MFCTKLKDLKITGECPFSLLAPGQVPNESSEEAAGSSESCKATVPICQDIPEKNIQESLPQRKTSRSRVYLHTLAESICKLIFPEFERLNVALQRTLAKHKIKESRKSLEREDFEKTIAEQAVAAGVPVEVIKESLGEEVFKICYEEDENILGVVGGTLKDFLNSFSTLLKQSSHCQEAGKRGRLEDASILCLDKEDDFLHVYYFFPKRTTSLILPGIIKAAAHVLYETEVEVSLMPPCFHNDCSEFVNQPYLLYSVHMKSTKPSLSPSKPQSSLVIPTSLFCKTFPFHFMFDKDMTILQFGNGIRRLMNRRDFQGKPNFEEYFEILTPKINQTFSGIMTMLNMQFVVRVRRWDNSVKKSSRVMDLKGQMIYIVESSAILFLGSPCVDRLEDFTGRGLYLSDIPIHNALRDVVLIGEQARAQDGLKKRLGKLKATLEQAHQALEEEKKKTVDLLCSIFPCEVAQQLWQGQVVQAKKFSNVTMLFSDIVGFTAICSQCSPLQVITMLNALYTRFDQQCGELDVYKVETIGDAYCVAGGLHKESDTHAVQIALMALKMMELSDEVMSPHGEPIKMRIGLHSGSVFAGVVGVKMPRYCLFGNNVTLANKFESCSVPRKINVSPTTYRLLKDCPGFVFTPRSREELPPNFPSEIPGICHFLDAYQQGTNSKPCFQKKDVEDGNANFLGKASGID

| Compound | EC50 [1] | Emax [2] | EC50 [2] |
| --- | --- | --- | --- |
| O=C(O)[C@H]1[C@H]2CC[C@H](C2)[C@H]1Nc1nc(-c2cc(-c3ccon3)n(Cc3ccccc3F)n2)ncc1F (racemic) [Compound I-379] | < 0.1 µM |  |  |
| O=C(O)[C@H]1[C@@H](Nc2nc(-c3cc(-c4ccon4)n(Cc4ccccc4F)n3)ncc2F)[C@@H]2CC[C@H]1O2 (racemic) [Compound I-384] | > 1 µM |  |  |
| O=C(Nc1ccnc(-c2cc(-c3ccon3)n(Cc3ccccc3F)n2)n1)C(F)(F)F [Compound I-164] | 0.101 to 1 µM |  |  |
| COC(=O)CC1CCN(c2nc(-c3cc(-c4ccon4)n(Cc4ccccc4F)n3)ncc2F)CC1 [Compound I-231] |  | 40 to 60% | > 10 µM |
| COCCC(Nc1nc(-c2cc(-c3ccon3)n(Cc3ccccc3F)n2)ncc1F)C(=O)O (centres unmarked) [Compound I-232] |  | 80 to 100% | 1 to 5 µM |
| O=C(O)C(Nc1nc(-c2cc(-c3ccon3)n(Cc3ccccc3F)n2)ncc1F)C1CCCCC1 (centres unmarked) [Compound I-233] |  | 60 to 80% | 0.1 to 0.5 µM |
| O=C(O)CCC1CCN(c2nc(-c3cc(-c4ccon4)n(Cc4ccccc4F)n3)ncc2F)CC1 [Compound I-234] |  | 80 to 100% | 0.1 to 0.5 µM |
| CC(C)[C@@H](C(=O)O)N(C)c1nc(-c2cc(-c3ccon3)n(Cc3cccc(F)c3F)n2)ncc1F [Compound I-235] |  | 100 to 120% | 0.001 to 0.1 µM |
| CC(C)[C@H](c1nnn[nH]1)N(C)c1nc(-c2cc(-c3ccon3)n(Cc3ccccc3F)n2)ncc1F [Compound I-237] |  | 60 to 80% | 0.1 to 0.5 µM |
| CN(CC1(C(=O)O)CCOCC1)c1nc(-c2cc(-c3ccon3)n(Cc3ccccc3F)n2)ncc1F [Compound I-238] |  | 60 to 80% | 0.1 to 0.5 µM |
| O=C(O)[C@H](Nc1nc(-c2cc(-c3ccon3)n(Cc3ccccc3F)n2)ncc1F)C1CC1 [Compound I-240] |  | 60 to 80% | 0.5 to 1 µM |
| CN(c1nc(-c2cc(-c3ccon3)n(Cc3ccccc3F)n2)ncc1F)[C@@H](C(=O)O)C1CC1 [Compound I-241] |  | 80 to 100% | 0.1 to 0.5 µM |
| CN(c1nc(-c2cc(-c3ccon3)n(Cc3ccccc3F)n2)ncc1F)[C@@H]1CCCC[C@H]1C(=O)O [Compound I-242] |  | 100 to 120% | 0.1 to 0.5 µM |
| O=C(O)[C@H](Nc1nc(-c2cc(-c3ccon3)n(Cc3ccccc3F)n2)ncc1F)C1CCCCC1 [Compound I-243, (R)-2-cyclohexyl-2-((5-fluoro-2-(1-(2-fluorobenzyl)-5-(isoxazol-3-yl)-1H-pyrazol-3-yl)pyrimidin-4-yl)amino)acetic acid] |  | 80 to 100% | 0.001 to 0.1 µM |
| CN(c1nc(-c2cc(-c3ccon3)n(Cc3ccccc3F)n2)ncc1F)C(CC(F)(F)F)C(=O)O (centres unmarked) [Compound I-244] |  | 80 to 100% | 0.5 to 1 µM |
| CCOC(=O)CN(c1nc(-c2cc(-c3ccon3)n(Cc3ccccc3F)n2)ncc1F)C1(C)CCOCC1 [Compound I-246] |  | 40 to 60% | 1 to 5 µM |
| CCC(C)[C@H](C(=O)O)N(C)c1nc(-c2cc(-c3ccon3)n(Cc3ccccc3F)n2)ncc1F (some centres unmarked) [Compound I-247] |  | 80 to 100% | 0.001 to 0.1 µM |
| CC(C)(C)[C@H](CC(=O)O)Nc1nc(-c2cc(-c3ccon3)n(Cc3ccccc3F)n2)ncc1F [Compound I-251] |  | 60 to 80% | 0.1 to 0.5 µM |
| CCC(CC)(CN(C)c1nc(-c2cc(-c3ccon3)n(Cc3ccccc3F)n2)ncc1F)C(=O)O [Compound I-252] |  | 60 to 80% | 0.001 to 0.1 µM |
| O=C(O)c1ccccc1C1CCN(c2nc(-c3cc(-c4ccon4)n(Cc4ccccc4F)n3)ncc2F)CC1 [Compound I-254] |  | 80 to 100% | 0.001 to 0.1 µM |
| O=C(O)C1(c2ccc(F)cc2)CCN(c2nc(-c3cc(-c4ccon4)n(Cc4ccccc4F)n3)ncc2F)CC1 [Compound I-255] |  | 80 to 100% | 0.001 to 0.1 µM |
| CCC(C)(C)C1(C(=O)O)CCN(c2nc(-c3cc(-c4ccon4)n(Cc4ccccc4F)n3)ncc2F)CC1 [Compound I-256] |  | 80 to 100% | 0.1 to 0.5 µM |
| CC(C)CC(Nc1nc(-c2cc(-c3ccon3)n(Cc3ccccc3F)n2)ncc1F)C(=O)NS(C)(=O)=O (centres unmarked) [Compound I-259] |  | 100 to 120% | 0.1 to 0.5 µM |
| CC1(C)CCC(C(=O)O)N(c2nc(-c3cc(-c4ccon4)n(Cc4ccccc4F)n3)ncc2F)C1 (centres unmarked) [Compound I-268] | < 0.1 µM |  |  |
